Assay results reported in ChEMBL document CHEMBL4819065, “Gelstriamine A, a Triamino Monoterpene Indole Alkaloid with a Caged 6/5/7/6/6/5 Scaffold and Analgesic Alkaloids from Gelsemium elegans Stems” (2021).
Active and inactive are the calls of the source. The calls are words filed in the database; no cut-off is given here.

Assays:
Mus musculus [1] = test: Analgesic activity in Kunming mouse assessed as inhibition of acetic acid-induced writhing at 5 mg/kg, ip pretreated with compound for 30 mins followed by acetic acid challenge and measured after 30 mins; format: functional, organism-based; details: time 60.0 min
Mus musculus [2] = test: Analgesic activity in Kunming mouse assessed as inhibition of acetic acid-induced writhing at 1 mg/kg, ip pretreated with compound for 30 mins followed by acetic acid challenge and measured after 30 mins; format: functional; details: 1 h, time 60 min
Mus musculus [3] = test: Analgesic activity in Kunming mouse assessed as inhibition of acetic acid-induced writhing at 0.2 mg/kg, ip pretreated with compound for 30 mins followed by acetic acid challenge and measured after 30 mins; format: functional; details: 1 h, time 60 min
Mus musculus [4] = test: Analgesic activity in Kunming mouse assessed as inhibition of acetic acid-induced writhing at 0.04 mg/kg, ip pretreated with compound for 30 mins followed by acetic acid challenge and measured after 30 mins; format: functional; details: 1 h, time 60 min

| SMILES | Activity (Mus musculus [1]) | further results |
| --- | --- | --- |
| C/C=C1\CN(C)[C@H]2C[C@@]3(C(=O)N(OC)c4cc(O)ccc43)[C@H]3C[C@@H]1[C@@H]2CO3 | Active | – |
| CC[C@@]1(CO)N[C@H]2C[C@@]3(C(=O)N(OC)c4ccccc43)[C@H]3C[C@@H]1[C@@H]2CO3 | Active | – |
| C=CC12CN[C@@H]3[C@H]4CO[C@H](CC41)[C@]1(C(=O)Nc4ccccc41)[C@@H]32 | Active | – |
| C/C=C1\CN2[C@H]3C[C@@H]1[C@H](CO)[C@@H]2Cc1c3[nH]c2ccccc12 | Active | – |
| C=C[C@@]12CN[C@@H]3C[C@]14C(=Nc1ccccc14)[C@H]1C[C@@H]2[C@@H]3CO1 | Active | – |
| CC[C@@]12OC(=O)N[C@@H]1N(C)[C@H]1C[C@@]3(C(=O)N(OC)c4ccccc43)[C@H]3C[C@@H]2[C@@H]1CO3 | Active | inhibition in vivo at 1 mg/kg (Mus musculus [2]): 64.7% |
| C/C=C1\C[N@+](C)([O-])[C@H]2C[C@@]3(C(=O)Nc4ccccc43)[C@H]3C[C@@H]1[C@@H]2CO3 | Active | inhibition in vivo at 0.2 mg/kg (Mus musculus [3]): 76.1%; inhibition in vivo at 0.04 mg/kg (Mus musculus [4]): 67.6% |
| C/C=C1\CN(C)[C@H]2C[C@@]3(C(=O)N(OC)c4ccccc43)[C@H]3C[C@@H]1[C@@H]2CO3 | Active | – |
| C/C=C1\C[N@+](C)([O-])[C@H]2C[C@@]3(C(=O)N(OC)c4ccccc43)[C@H]3C[C@@H]1[C@@H]2CO3 | Active | – |
| c1ccc2[nH]c(-c3cc4c(cn3)CCCC4)cc2c1 | Active | – |
| C/C=C1\CN[C@H]2C[C@@]3(C(=O)N(OC)c4cc(OC)ccc43)[C@H]3C[C@@H]1[C@@H]2CO3 | Active | – |
| C/C=C1\C[N@+](C)([O-])[C@H]2C[C@@]3(C(=O)N(OC)c4cc(O)ccc43)[C@H]3C[C@@H]1[C@@H]2CO3 | Active | – |
| C/C=C1\CN(C)[C@H]2C[C@@]3(C(=O)Nc4ccccc43)[C@H]3C[C@@H]1[C@@H]2CO3 | Active | – |
| C/C=C1\CN2[C@H]3C[C@@H]1[C@@H](CO)[C@@H]2Cc1c3[nH]c2ccccc12 | Active | – |
| COc1ccc2c(c1)N(OC)C(=O)[C@@]21C[C@@H]2N[C@](CO)([C@@H](C)O)[C@@H]3C[C@H]1OC[C@H]23 | Active | – |
| C/C=C1\C[N@@+]2([O-])[C@H]3C[C@@H]1[C@@H](CO)[C@@H]2Cc1c3[nH]c2ccccc12 | Active | – |
| CON1C(=O)[C@@]2(C[C@@H]3N[C@](CO)([C@@H](C)O)[C@@H]4C[C@H]2OC[C@H]34)c2ccccc21 | Active | – |
